# Data as given in patent publication US6358885B1, “Substituted phenylheterocyclic herbicides” (Mississippi State University, priority 1992, dated 2002).
# Key:
# Assay in all cases: Test F preemergence/postemergence greenhouse plant response rating 0 to 100
# Conditions in all cases: 0 to 100 scale
# galium = assay type: in vivo, Galium aparine
# Excerpt: (§1) Compounds evaluated in this test were formulated in a non-phytoxic solvent and applied to the soil surface before plant seedlings emerged (preemergence application) and to plants that were in the one-to-four leaf stage (postemergence application). A sandy loam soil was used for the preemergence test while a mixture of sandy loam soil and greenhouse potting mix in a 60:40 ratio was used for the postemergence test. Test compounds were applied within approximately one day after planting seeds for the preemergence test. Plantings of these crops and weed species were adjusted to produce plants of appropriate size for the postemergence test. All plant species were grown using normal greenhouse practices. Crop and weed species include winter barley (Hordeum vulgare cv. ‘Igri’), blackgrass (Alopecurus myosuroides), chickweed (Stellaria media), downy brome (Bromus tectorum), field violet (Viola arvensis), galium (Galium aparine), green foxtail (Setaria viridis), kochia (Kochia scoparia), lambsquarters (Chenopodium album), speedwell (Veronica persica), rape (Brassica napus), ryegrass (Lolium multiflorum), sugar beet (Beta vulgaris cv. ‘USl’), sunflower (Helianthus annuus cv. ‘Russian Giant’), spring wheat (Triticum aestivum cv. ‘ERA’), winter wheat (Triticum aestivum cv. ‘Talent’), wild buckwheat (Polygonum convolvulus), wild mustard (Sinapis arvensis), wild oat (Avena fatua), and wild radish (Raphanus raphanistrum). Blackgrass, galium and wild oat were treated at two growth stages. […] Treated plants and untreated controls were maintained in a greenhouse for approximately 21 to 28 days, after which all treated plants were compared to untreated controls and visually evaluated. […] A dash response (-) means no test result.
# wild radish = assay type: in vivo, Raphanus raphanistrum
# Excerpt: as §1
# sunflower = assay type: in vivo, Helianthus annuus cv. ‘Russian Giant’
# Excerpt: as §1
# wild mustard = assay type: in vivo, Sinapis arvensis
# Excerpt: as §1
# field violet = assay type: in vivo, Viola arvensis
# Excerpt: as §1
# spring wheat = assay type: in vivo, Triticum aestivum cv. ‘ERA’
# Excerpt: as §1
# winter barley = assay type: in vivo, Hordeum vulgare cv. ‘Igri’
# Excerpt: as §1
smiles,measurement,setting,value
C#CCOc1cc(-c2nn3c(c2Br)CCCC3)c(F)cc1Cl [Compound 26],Galium (1) plant response rating,"galium; POSTEMERGENCE, Rate 4 g/ha, stage (1) two to three leaves",0
same,Galium (2) plant response rating,"galium; POSTEMERGENCE, Rate 4 g/ha, stage (2) approximately four leaves or initial tillering",50
same,Galium (1) plant response rating,"galium; POSTEMERGENCE, Rate 8 g/ha, stage (1) two to three leaves",0
same,Galium (2) plant response rating,"galium; POSTEMERGENCE, Rate 8 g/ha, stage (2) approximately four leaves or initial tillering",50
same,Galium (1) plant response rating,"galium; POSTEMERGENCE, Rate 16 g/ha, stage (1) two to three leaves",30
same,Galium (2) plant response rating,"galium; POSTEMERGENCE, Rate 16 g/ha, stage (2) approximately four leaves or initial tillering",100
same,Galium (1) plant response rating,"galium; POSTEMERGENCE, Rate 32 g/ha, stage (1) two to three leaves",50
same,Galium (2) plant response rating,"galium; POSTEMERGENCE, Rate 32 g/ha, stage (2) approximately four leaves or initial tillering",60
same,Galium (1) plant response rating,"galium; POSTEMERGENCE, Rate 64 g/ha, stage (1) two to three leaves",100
same,Galium (2) plant response rating,"galium; POSTEMERGENCE, Rate 64 g/ha, stage (2) approximately four leaves or initial tillering",100
same,Galium (1) plant response rating,"galium; POSTEMERGENCE, Rate 125 g/ha, stage (1) two to three leaves",100
same,Galium (2) plant response rating,"galium; POSTEMERGENCE, Rate 125 g/ha, stage (2) approximately four leaves or initial tillering",100
same,Galium (1) plant response rating,"galium; POSTEMERGENCE, Rate 250 g/ha, stage (1) two to three leaves",100
same,Galium (2) plant response rating,"galium; POSTEMERGENCE, Rate 250 g/ha, stage (2) approximately four leaves or initial tillering",100
same,Galium (1) plant response rating,"galium; PREEMERGENCE, Rate 4 g/ha, Galium (1)",0
same,Galium (2) plant response rating,"galium; PREEMERGENCE, Rate 4 g/ha, Galium (2)",0
same,Galium (1) plant response rating,"galium; PREEMERGENCE, Rate 8 g/ha, Galium (1)",0
same,Galium (2) plant response rating,"galium; PREEMERGENCE, Rate 8 g/ha, Galium (2)",20
same,Galium (1) plant response rating,"galium; PREEMERGENCE, Rate 16 g/ha, Galium (1)",0
same,Galium (2) plant response rating,"galium; PREEMERGENCE, Rate 16 g/ha, Galium (2)",40
same,Galium (1) plant response rating,"galium; PREEMERGENCE, Rate 32 g/ha, Galium (1)",100
same,Galium (2) plant response rating,"galium; PREEMERGENCE, Rate 32 g/ha, Galium (2)",100
same,Galium (1) plant response rating,"galium; PREEMERGENCE, Rate 64 g/ha, Galium (1)",100
same,Galium (2) plant response rating,"galium; PREEMERGENCE, Rate 64 g/ha, Galium (2)",100
same,Galium (1) plant response rating,"galium; PREEMERGENCE, Rate 125 g/ha, Galium (1)",100
same,Galium (2) plant response rating,"galium; PREEMERGENCE, Rate 125 g/ha, Galium (2)",100
same,Galium (1) plant response rating,"galium; PREEMERGENCE, Rate 250 g/ha, Galium (1)",100
same,Galium (2) plant response rating,"galium; PREEMERGENCE, Rate 250 g/ha, Galium (2)",100
same,Wild radish plant response rating,"wild radish; POSTEMERGENCE, Rate 4 g/ha",0
same,Wild radish plant response rating,"wild radish; POSTEMERGENCE, Rate 8 g/ha",20
same,Wild radish plant response rating,"wild radish; POSTEMERGENCE, Rate 16 g/ha",60
same,Wild radish plant response rating,"wild radish; POSTEMERGENCE, Rate 32 g/ha",60
same,Wild radish plant response rating,"wild radish; POSTEMERGENCE, Rate 64 g/ha",60
same,Wild radish plant response rating,"wild radish; POSTEMERGENCE, Rate 125 g/ha",60
same,Wild radish plant response rating,"wild radish; POSTEMERGENCE, Rate 250 g/ha",60
same,Wild radish plant response rating,"wild radish; PREEMERGENCE, Rate 4 g/ha",0
same,Wild radish plant response rating,"wild radish; PREEMERGENCE, Rate 8 g/ha",0
same,Wild radish plant response rating,"wild radish; PREEMERGENCE, Rate 16 g/ha",0
same,Wild radish plant response rating,"wild radish; PREEMERGENCE, Rate 32 g/ha",0
same,Wild radish plant response rating,"wild radish; PREEMERGENCE, Rate 64 g/ha",40
same,Wild radish plant response rating,"wild radish; PREEMERGENCE, Rate 125 g/ha",70
same,Wild radish plant response rating,"wild radish; PREEMERGENCE, Rate 250 g/ha",100
same,Sunflower plant response rating,"sunflower; POSTEMERGENCE, Rate 4 g/ha",0
same,Sunflower plant response rating,"sunflower; POSTEMERGENCE, Rate 8 g/ha",0
same,Sunflower plant response rating,"sunflower; POSTEMERGENCE, Rate 16 g/ha",0
same,Sunflower plant response rating,"sunflower; POSTEMERGENCE, Rate 32 g/ha",20
same,Sunflower plant response rating,"sunflower; POSTEMERGENCE, Rate 64 g/ha",60
same,Sunflower plant response rating,"sunflower; POSTEMERGENCE, Rate 125 g/ha",100
same,Sunflower plant response rating,"sunflower; POSTEMERGENCE, Rate 250 g/ha",60
same,Sunflower plant response rating,"sunflower; PREEMERGENCE, Rate 4 g/ha",0
same,Sunflower plant response rating,"sunflower; PREEMERGENCE, Rate 8 g/ha",0
same,Sunflower plant response rating,"sunflower; PREEMERGENCE, Rate 16 g/ha",0
same,Sunflower plant response rating,"sunflower; PREEMERGENCE, Rate 32 g/ha",0
same,Sunflower plant response rating,"sunflower; PREEMERGENCE, Rate 64 g/ha",0
same,Sunflower plant response rating,"sunflower; PREEMERGENCE, Rate 125 g/ha",10
same,Sunflower plant response rating,"sunflower; PREEMERGENCE, Rate 250 g/ha",60
same,Wild mustard plant response rating,"wild mustard; POSTEMERGENCE, Rate 4 g/ha",70
same,Wild mustard plant response rating,"wild mustard; POSTEMERGENCE, Rate 8 g/ha",70
same,Wild mustard plant response rating,"wild mustard; POSTEMERGENCE, Rate 16 g/ha",100
same,Wild mustard plant response rating,"wild mustard; POSTEMERGENCE, Rate 32 g/ha",100
same,Wild mustard plant response rating,"wild mustard; POSTEMERGENCE, Rate 64 g/ha",100
same,Wild mustard plant response rating,"wild mustard; POSTEMERGENCE, Rate 125 g/ha",100
same,Wild mustard plant response rating,"wild mustard; POSTEMERGENCE, Rate 250 g/ha",100
same,Wild mustard plant response rating,"wild mustard; PREEMERGENCE, Rate 4 g/ha",0
same,Wild mustard plant response rating,"wild mustard; PREEMERGENCE, Rate 8 g/ha",0
same,Wild mustard plant response rating,"wild mustard; PREEMERGENCE, Rate 16 g/ha",40
same,Wild mustard plant response rating,"wild mustard; PREEMERGENCE, Rate 32 g/ha",50
same,Wild mustard plant response rating,"wild mustard; PREEMERGENCE, Rate 64 g/ha",80
same,Wild mustard plant response rating,"wild mustard; PREEMERGENCE, Rate 125 g/ha",70
same,Field violet plant response rating,"field violet; POSTEMERGENCE, Rate 4 g/ha",100
same,Field violet plant response rating,"field violet; POSTEMERGENCE, Rate 8 g/ha",100
same,Field violet plant response rating,"field violet; POSTEMERGENCE, Rate 16 g/ha",100
same,Field violet plant response rating,"field violet; POSTEMERGENCE, Rate 32 g/ha",100
same,Field violet plant response rating,"field violet; POSTEMERGENCE, Rate 64 g/ha",100
same,Field violet plant response rating,"field violet; POSTEMERGENCE, Rate 125 g/ha",100
same,Field violet plant response rating,"field violet; POSTEMERGENCE, Rate 250 g/ha",100
same,Field violet plant response rating,"field violet; PREEMERGENCE, Rate 4 g/ha",0
same,Field violet plant response rating,"field violet; PREEMERGENCE, Rate 8 g/ha",0
same,Field violet plant response rating,"field violet; PREEMERGENCE, Rate 16 g/ha",70
same,Field violet plant response rating,"field violet; PREEMERGENCE, Rate 32 g/ha",100
same,Field violet plant response rating,"field violet; PREEMERGENCE, Rate 64 g/ha",100
same,Field violet plant response rating,"field violet; PREEMERGENCE, Rate 125 g/ha",100
same,Field violet plant response rating,"field violet; PREEMERGENCE, Rate 250 g/ha",100
same,Wheat (Spring) plant response rating,"spring wheat; POSTEMERGENCE, Rate 4 g/ha",0
same,Wheat (Spring) plant response rating,"spring wheat; POSTEMERGENCE, Rate 8 g/ha",0
same,Wheat (Spring) plant response rating,"spring wheat; POSTEMERGENCE, Rate 16 g/ha",0
same,Wheat (Spring) plant response rating,"spring wheat; POSTEMERGENCE, Rate 32 g/ha",15
same,Wheat (Spring) plant response rating,"spring wheat; POSTEMERGENCE, Rate 64 g/ha",15
same,Wheat (Spring) plant response rating,"spring wheat; POSTEMERGENCE, Rate 125 g/ha",15
same,Wheat (Spring) plant response rating,"spring wheat; POSTEMERGENCE, Rate 250 g/ha",20
same,Wheat (Spring) plant response rating,"spring wheat; PREEMERGENCE, Rate 4 g/ha",0
same,Wheat (Spring) plant response rating,"spring wheat; PREEMERGENCE, Rate 8 g/ha",0
same,Wheat (Spring) plant response rating,"spring wheat; PREEMERGENCE, Rate 16 g/ha",0
same,Wheat (Spring) plant response rating,"spring wheat; PREEMERGENCE, Rate 32 g/ha",0
same,Wheat (Spring) plant response rating,"spring wheat; PREEMERGENCE, Rate 64 g/ha",0
same,Wheat (Spring) plant response rating,"spring wheat; PREEMERGENCE, Rate 125 g/ha",15
same,Wheat (Spring) plant response rating,"spring wheat; PREEMERGENCE, Rate 250 g/ha",20
same,Winter Barley plant response rating,"winter barley; POSTEMERGENCE, Rate 4 g/ha",0
same,Winter Barley plant response rating,"winter barley; POSTEMERGENCE, Rate 8 g/ha",0
same,Winter Barley plant response rating,"winter barley; POSTEMERGENCE, Rate 16 g/ha",0
same,Winter Barley plant response rating,"winter barley; POSTEMERGENCE, Rate 32 g/ha",20
same,Winter Barley plant response rating,"winter barley; POSTEMERGENCE, Rate 64 g/ha",30
same,Winter Barley plant response rating,"winter barley; POSTEMERGENCE, Rate 125 g/ha",30
same,Winter Barley plant response rating,"winter barley; POSTEMERGENCE, Rate 250 g/ha",30
same,Winter Barley plant response rating,"winter barley; PREEMERGENCE, Rate 4 g/ha",0
same,Winter Barley plant response rating,"winter barley; PREEMERGENCE, Rate 8 g/ha",0
same,Winter Barley plant response rating,"winter barley; PREEMERGENCE, Rate 16 g/ha",0
same,Winter Barley plant response rating,"winter barley; PREEMERGENCE, Rate 32 g/ha",0
same,Winter Barley plant response rating,"winter barley; PREEMERGENCE, Rate 64 g/ha",0
same,Winter Barley plant response rating,"winter barley; PREEMERGENCE, Rate 125 g/ha",15
